From patent publication US20040171086A1, “Selective modulation of TLR-mediated biological activity” (3M Innovative Properties Company, priority 2003, published 2004)

Assays:
human TLR8 = target: T1, human TLR8 (Homo sapiens, UniProt Q9NR97); assay: NFκB-luciferase reporter assay in HEK293 cells transfected with human TLR8 (HEK293-TLR8); format: cell-based; conditions: HEK293-TLR8, 10 μM IRM, 16 hours
T1 construct: expressed in transfected cells; host or cells: HEK293 (ATCC CRL-1573), pIRES vector, G-418 selected
T1 sequence (Q9NR97 27-1041): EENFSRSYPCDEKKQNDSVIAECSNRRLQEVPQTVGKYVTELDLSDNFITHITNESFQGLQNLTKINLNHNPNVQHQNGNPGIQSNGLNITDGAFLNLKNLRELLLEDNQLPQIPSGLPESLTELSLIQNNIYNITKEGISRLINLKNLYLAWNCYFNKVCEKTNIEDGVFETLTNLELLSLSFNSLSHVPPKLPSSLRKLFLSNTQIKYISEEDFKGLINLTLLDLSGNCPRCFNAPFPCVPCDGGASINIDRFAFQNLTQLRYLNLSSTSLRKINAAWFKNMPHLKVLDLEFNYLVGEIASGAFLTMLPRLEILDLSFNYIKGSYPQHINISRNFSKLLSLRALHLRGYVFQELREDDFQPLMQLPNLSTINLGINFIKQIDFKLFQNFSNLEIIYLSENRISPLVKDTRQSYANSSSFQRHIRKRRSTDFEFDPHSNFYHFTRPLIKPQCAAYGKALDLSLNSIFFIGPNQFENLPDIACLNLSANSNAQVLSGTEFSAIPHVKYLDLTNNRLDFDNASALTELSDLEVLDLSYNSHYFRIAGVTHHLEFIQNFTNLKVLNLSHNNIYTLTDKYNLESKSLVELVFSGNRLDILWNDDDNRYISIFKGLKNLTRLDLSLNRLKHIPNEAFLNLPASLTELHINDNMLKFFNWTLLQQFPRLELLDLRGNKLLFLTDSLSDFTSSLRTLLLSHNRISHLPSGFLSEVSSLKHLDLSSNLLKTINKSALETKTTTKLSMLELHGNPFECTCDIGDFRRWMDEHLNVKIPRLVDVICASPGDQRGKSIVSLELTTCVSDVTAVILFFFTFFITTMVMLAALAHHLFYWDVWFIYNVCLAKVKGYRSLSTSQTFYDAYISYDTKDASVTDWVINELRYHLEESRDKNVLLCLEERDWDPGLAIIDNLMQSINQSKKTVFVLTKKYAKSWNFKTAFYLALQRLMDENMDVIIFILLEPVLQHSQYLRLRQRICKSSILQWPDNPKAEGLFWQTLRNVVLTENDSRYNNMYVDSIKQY
Procedure: (§1) A compound was identified as increasing cellular activity mediated through a given TLR if it induced at least a two-fold increase in NFκB-induced luciferase signal compared to the control.
(§2) HEK293 medium was prepared from 90% Minimum Essential Medium (MEM) with 2 mM L-glutamine and Earle's Balanced Salt Solution (Invitrogen Corp., Rockville, Md.) adjusted to contain 1.5 g/L sodium bicarbonate, 0.1 mM non-essential amino acids, and 1.0 mM sodium pyruvate; 10% heat-inactivated fetal calf serum. HEK293 cells were cultured by incubating cells in HEK293 medium overnight at 37° C., 8% CO2.
(§3) The cells were co-transfected with (1) pIRES (BD Biosciences Clontech, Palo Alto, Calif.) either (a) unmodified (HEK293-vector), (b) containing an expressible human TLR7 gene (HEK293-TLR7), or (c) containing an expressible human TLR8 gene (HEK293-TLR8), and (2) NFκB-luc reporter (Stratagene, La Jolla, Calif.) in a 10:1 ratio with Fugene 6 transfection reagent (Roche Diagnostics Corp., Indianapolis, Ind.) following the manufacturer's instructions.
(§4) The cells were stimulated with 1 μL of IRM compounds at 1 mM in DMSO (final IRM concentration of 10 μM) or 1 μL DMSO as a control. The plates were then incubated an additional 16 hours at 37° C., 5% CO2. The luciferase signal was read using the LucLite kit (Packard Instrument Co., Meriden, Conn.). Luminescence was measured on an LMAX luminometer (Molecular Devices Corp., Sunnyvale, Calif.).

TLR7 = target: T2, TLR7 (Homo sapiens, UniProt Q9NYK1); assay: NFκB-luciferase reporter assay in HEK293 cells transfected with human TLR7 (HEK293-TLR7); format: cell-based; parameters: expressed in transfected cells; host or cells: HEK293 (ATCC CRL-1573), pIRES vector, G-418 selected; conditions: HEK293-TLR7, 10 μM IRM, 16 hours
T2 sequence (Q9NYK1 27-1049): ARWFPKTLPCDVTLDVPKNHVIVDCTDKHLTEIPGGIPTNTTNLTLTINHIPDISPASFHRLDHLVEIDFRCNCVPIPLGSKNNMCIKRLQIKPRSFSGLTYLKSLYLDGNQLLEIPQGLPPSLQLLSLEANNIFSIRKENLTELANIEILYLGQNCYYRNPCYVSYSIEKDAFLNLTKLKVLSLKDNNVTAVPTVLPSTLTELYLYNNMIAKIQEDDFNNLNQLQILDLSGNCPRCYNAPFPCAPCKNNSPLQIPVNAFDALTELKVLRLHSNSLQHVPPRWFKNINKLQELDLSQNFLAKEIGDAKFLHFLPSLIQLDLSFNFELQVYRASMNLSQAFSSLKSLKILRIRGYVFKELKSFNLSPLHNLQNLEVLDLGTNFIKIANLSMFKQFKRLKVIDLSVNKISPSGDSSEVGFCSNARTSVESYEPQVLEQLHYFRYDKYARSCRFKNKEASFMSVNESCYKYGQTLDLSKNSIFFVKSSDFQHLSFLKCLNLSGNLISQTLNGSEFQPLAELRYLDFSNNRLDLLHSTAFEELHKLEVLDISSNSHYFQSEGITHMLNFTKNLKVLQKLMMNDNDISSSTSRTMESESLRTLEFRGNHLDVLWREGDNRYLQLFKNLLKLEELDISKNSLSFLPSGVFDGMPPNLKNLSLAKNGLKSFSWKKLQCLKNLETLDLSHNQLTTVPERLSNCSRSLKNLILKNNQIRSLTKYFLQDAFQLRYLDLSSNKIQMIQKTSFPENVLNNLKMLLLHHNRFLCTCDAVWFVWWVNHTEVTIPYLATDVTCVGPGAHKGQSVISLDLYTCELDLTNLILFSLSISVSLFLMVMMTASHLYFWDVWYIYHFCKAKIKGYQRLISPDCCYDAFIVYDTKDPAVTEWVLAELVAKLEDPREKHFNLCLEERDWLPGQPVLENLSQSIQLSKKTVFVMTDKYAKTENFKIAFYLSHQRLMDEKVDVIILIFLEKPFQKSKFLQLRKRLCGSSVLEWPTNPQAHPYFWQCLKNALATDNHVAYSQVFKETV
Procedure: as §1, §2, §3, §4

Row | Compound | TLR8: fold increase of NFκB-induced luciferase signal compared to a DMSO control (human TLR8) [fold increase] | TLR7: fold increase of NFκB-induced luciferase signal compared to a DMSO control (TLR7) [fold increase]
1 | Cc1nc2c(N)nc3ccccc3c2n1CCOCCCc1cccnc1 [IRM2, 2-methyl-1-[2-(3-pyridin-3-ylpropoxy)ethyl]-1H-imidazo[4,5-c]quinolin-4-amine] | 0.91 | 4.16
2 | Cc1nc2c(N)nc3ccccc3c2n1CCOCc1ccccc1 [IRM4, 1-[2-(benzyloxy)ethyl]-2-methyl-1H-imidazo[4,5-c]quinolin-4-amine] | 1.06 | 4.98
3 | COCCc1nc2c(N)nc3ccccc3c2n1CCCCCCCCNC(=O)Nc1ccccc1 [IRM5, N-{8-[4-amino-2-(2-methoxyethyl)-1H-imidazo[4,5-c]quinolin-1-yl]octyl}-N′-phenylurea] | 0.94 | 3.38
4 | COCCc1nc2c(N)nc3ccccc3c2n1CCCNS(=O)(=O)c1ccc(C)cc1 [IRM7, N-{3-[4-amino-2-(2-methoxyethyl)-1H-imidazo[4,5-c]quinolin-1-yl]propyl}-4-methylbenzenesulfonamide] | 0.86 | 6.22
5 | CCCCc1nc2c(N)nc3cccnc3c2n1CCNC(=O)C(N)CC(C)C (stereo not drawn) [IRM10, N^1-[2-(4-amino-2-butyl-1H-imidazo[4,5-c][1,5]naphthyridin-1-yl)ethyl]-2-amino-4-methylpentanamide] | 9.24 | 0.64
6 | Nc1nc2ccccc2c2c1ncn2CCCCNC(=O)c1ccccc1Oc1ccccc1 [IRM11, N^1-[4-(4-amino-1H-imidazo[4,5-c]quinolin-1-yl)butyl]-2-phenoxybenzamide] | 10.69 | 1.44
7 | CCCCc1nc2c(N)nc3ccccc3c2n1CCNS(=O)(=O)CCC [IRM12, N^1-[2-(4-amino-2-butyl-1H-imidazo[4,5-c]quinolin-1-yl)ethyl]-1-propanesulfonamide] | 8.84 | 1.16
8 | CCc1nc2c(N)nc3ccccc3c2n1CCOCCNC(=O)Nc1ccccc1 [IRM13, N-{2-[2-(4-amino-2-ethyl-1H-imidazo[4,5-c]quinolin-1-yl)ethoxy]ethyl}-N′-phenylurea] | 6.25 | 0.86
9 | CCOCc1nc2c(N)nc3ccccc3c2n1CCNC(=O)Nc1cccc(C#N)c1 [IRM15, N-{2-[4-amino-2-(ethoxymethyl)-1H-imidazo[4,5-c]quinolin-1-yl]ethyl}-N′-(3-cyanophenyl)urea] | 5.52 | 0.92
10 | COCCc1nc2c(N)nc3ccccc3c2n1CC(C)(C)O [IRM17, 4-amino-α,α-dimethyl-2-methoxyethyl-1H-imidazo[4,5-c]quinoline-1-ethanol] | 10.18 | 2.53
11 | CCCCc1nc2c(N)nc(C)c(C)c2n1CC(C)(C)O [IRM18, 4-amino-2-butyl-α,α,6,7-tetramethyl-1H-imidazo[4,5-c]pyridine-1-ethanol] | 2.77 | 5.06
12 | CCc1nc2c(N)nc3ccccc3c2n1CCCCS(=O)(=O)c1cc(Cl)cc(Cl)c1 [IRM20, 1-{4-[(3,5-dichlorophenyl)sulfonyl]butyl}-2-ethyl-1H-imidazo[4,5-c]quinolin-4-amine] | 6.04 | 4.22
